Experimental data from patent US20250092056A1, “URACIL DERIVATIVES HAVING VIRUS REPLICATION INHIBITORY ACTIVITY AND PHARMACEUTICAL COMPOSITION COMPRISING THE SAME” (Shionogi & Co., Ltd., priority 2022, published 2025).
Read-outs that look alike come from different tables or passages of the source.

Key:
SARS-CoV-2 = test: Cytopathic effect (CPE) suppression effect confirmation test using HEK293T/ACE2-TMPRSS2 cells; assay type: cell-based; conditions: Severe acute respiratory syndrome coronavirus 2, HEK-293T
[1] = molecular target: Recombinant SARS-CoV-2 3CL Protease (Severe acute respiratory syndrome coronavirus 2 (2019-nCoV) (SARS-CoV-2), UniProt P0DTD1); test: biochemical; assay type: biochemical; conditions: 50% SARS-CoV-2 3CL protease inhibitory concentration; read-out: IC50
[2] = 50% SARS-CoV-2 infected cell death inhibitory concentration, HEK293T/ACE2-TMPRSS2 cells, read-out: EC50
[3] = 72 h, read-out: EC50 (50% SARS-CoV-2 infected cell death inhibitory concentration), HEK293T/ACE2-TMPRSS2 cells, CPE suppression, CellTiter-Glo 2.0 after 3 days culture
[4] = 72 h, read-out: EC50 (50% SARS-CoV-2 infected cell death inhibitory concentration), class, HEK293T/ACE2-TMPRSS2 cells, CPE suppression, CellTiter-Glo 2.0 after 3 days culture
[5] = 72 h, HEK293T/ACE2-TMPRSS2 cells, CPE suppression, CellTiter-Glo 2.0 after 3 days culture, read-out: EC50 (50% SARS-CoV-2 infected cell death inhibitory concentration), class

Compound	EC50 (SARS-CoV-2; [2])	IC50 [1]	EC50 (SARS-CoV-2; [3])	EC50 (SARS-CoV-2; [4])	EC50 (SARS-CoV-2; [5])
N#CCn1c(N2CC(O)C2)c(-c2ccc(F)c(C(F)F)c2)c(=O)n(-c2cncc(C#N)c2)c1=O [Compound I-416]	< 100 nM	< 10 nM			
N#CCn1c(N2Cc3ccccc3C2)c(C(=O)c2cc(F)c(F)c(F)c2)c(=O)n(-c2cncc(Cl)c2)c1=O [Compound I-165]		3800 nM	228 nM		
C[C@@](O)(CCc1c(-c2ccc(F)c(Cl)c2)c(=O)n(-c2cncc(C#N)c2)c(=O)n1CC#N)C(F)F (single isomer, unassigned) [Compound I-430]	< 100 nM	< 10 nM			
Cn1cnc(Cn2c(=O)c(-c3cccc(Cl)c3)c(N3Cc4ccccc4C3)n(CC#N)c2=O)n1 [Compound I-122]		> 100 nM		1000 to 5000 nM	
N#CCn1c(N2CC(OC(F)(F)F)C2)c(-c2ccc(F)c(Cl)c2)c(=O)n(-c2cnc3cc(F)ccn23)c1=O [Compound I-351]	< 100 nM	< 10 nM			
Cc1cncc(-n2c(=O)c(-c3ccc(F)c(Cl)c3)c(Cl)n(CC#N)c2=O)c1 [Compound I-015]		< 10 nM		100 to 1000 nM	
N#CCn1c(N2CC3(CCCO3)C2)c(-c2ccc(F)c(Cl)c2)c(=O)n(-c2cnc3cc(F)ccn23)c1=O [Compound I-152]		< 10 nM		< 100 nM	
C[C@@H](C#N)n1c(N2CC[C@](O)(C(F)F)C2)c(-c2ccc(F)c(F)c2)c(=O)n(-c2cncc(Cl)c2)c1=O (single isomer, unassigned) [Compound I-434]	< 100 nM	< 10 nM			
Cc1cncc(-n2c(=O)c(Cc3cc(F)c(F)c(F)c3)c(N3CCC(C(N)=O)CC3)n(CC#N)c2=O)c1 [Compound I-112]		< 10 nM		100 to 1000 nM	
Cc1cncc(-n2c(=O)c(-c3ccc(F)c(Cl)c3)c(-c3cnc(C)nc3)n(CC#N)c2=O)c1 [Compound I-022]		< 10 nM		< 100 nM	
CC(=O)OCC(=O)Cn1c(C)c(-c2ccc(F)c(Cl)c2)c(=O)n(-c2cncc(Cl)c2)c1=O [Compound I-444]	100 to 1000 nM	> 100 nM			
N#CCn1c(C2(O)CCC2)c(-c2ccc(F)c(Cl)c2)c(=O)n(-c2cncc(Cl)c2)c1=O [Compound I-348]	< 100 nM	10 to 100 nM			
N#CCn1c(N2CCC(C(F)(F)F)CC2)c(-c2ccc(F)c(Cl)c2)c(=O)n(-c2cncc(Cl)c2)c1=O [Compound I-069]		< 10 nM		< 100 nM	
N#CCn1c(N2CC(CO)C2)c(-c2ccc(F)c(Cl)c2)c(=O)n(-c2cncc(Cl)c2)c1=O [Compound I-249]		0.54 nM	7.9 nM		
CC(C)(O)[C@@H]1CCN(c2c(-c3ccc(F)c(Cl)c3)c(=O)n(-c3cncc(C#N)c3)c(=O)n2CC#N)C1 [Compound I-313]	< 100 nM	< 10 nM			
N#CCn1c(N2C[C@@H]3CC[C@H]2C3)c(-c2ccc(F)c(Cl)c2)c(=O)n(-c2cncc(Cl)c2)c1=O (racemic) [Compound I-267]	< 100 nM	< 10 nM			
C#CCn1c(CC(C)(C)F)c(-c2ccc(F)c(Cl)c2)c(=O)n(-c2cncc(Cl)c2)c1=O [Compound I-440]	< 100 nM	< 10 nM			
C[C@@H](C#N)n1c(N2CC[C@@](O)(C(F)F)C2)c(-c2ccc(F)c(C#N)c2)c(=O)n(-c2cncc(Cl)c2)c1=O (single isomer, unassigned) [Compound I-427]	< 100 nM	< 10 nM			
N#CCn1c(N2CC3(CCOC3)C2)c(Cc2cc(F)c(F)c(F)c2)c(=O)n(-c2cnc3ccc(F)cn23)c1=O [Compound I-129]		10 to 100 nM			100 to 1000 nM
N#CCn1c(N2CC(O)(c3ncccn3)C2)c(-c2ccc(F)c(Cl)c2)c(=O)n(-c2cncc(OCF)c2)c1=O [Compound I-346]	< 100 nM	< 10 nM			
Cc1cncc(-n2c(=O)c(-c3cccc(Cl)c3)c(N3Cc4ccccc4C3)n(CC#N)c2=O)c1 [Compound I-042]		< 10 nM		< 100 nM	
N#CCn1c(N2CC3(CCOC3)C2)c(-c2ccc(F)c(Cl)c2)c(=O)n(-c2cnc3ccccn23)c1=O [Compound I-043]		10 to 100 nM			100 to 1000 nM
N#CCn1c(N2CC(O)(C(F)F)C2)c(-c2cc(F)c(F)c(Cl)c2)c(=O)n(-c2cncc(Cl)c2)c1=O [Compound I-333]	< 100 nM	< 10 nM			
Cc1cncc(-n2c(=O)c(Oc3ccccc3)c(N3Cc4ccccc4C3)n(CC#N)c2=O)c1 [Compound I-014]		5.1 nM	17 nM		
Cc1cc(-n2c(=O)c(-c3ccc(F)c(Cl)c3)c(N3CC4(C3)CC(F)(F)C4)n(CC#N)c2=O)cc(=O)o1 [Compound I-344]	< 100 nM	10 to 100 nM			
N#CCn1c(N2CC3(C2)CC(F)(F)C3)c(-c2ccc(F)c(Cl)c2)c(=O)n(-c2cncc(OC(F)F)n2)c1=O [Compound I-332]	< 100 nM	< 10 nM			

Compound	EC50 (SARS-CoV-2; [2])	IC50 [1]	EC50 (SARS-CoV-2; [3])	EC50 (SARS-CoV-2; [4])	EC50 (SARS-CoV-2; [5])
Cc1cncc(-n2c(=O)c(Oc3cc(F)c(F)c(F)c3)c(Oc3cc(F)c(F)c(F)c3)n(CC#N)c2=O)c1 [Compound I-010]		> 100 nM		1000 to 5000 nM	
CC(C)(O)C1(F)CN(c2c(-c3ccc(F)c(Cl)c3)c(=O)n(-c3cncc(Cl)c3)c(=O)n2CC#N)C1 [Compound I-289]	< 100 nM	< 10 nM			
N#CCn1c(N2CC(O)(c3ncccn3)C2)c(-c2ccc(F)c(Cl)c2)c(=O)n(-c2cncc(C(F)F)n2)c1=O [Compound I-336]	< 100 nM	< 10 nM			
Cc1cncc(-n2c(=O)c(Cc3cc(F)c(F)c(F)c3)c(N3CCC4(CCOCC4)C3)n(CC#N)c2=O)c1 [Compound I-111]		< 10 nM		< 100 nM	
COc1ccc(-c2c(-c3ccc(F)c(Cl)c3)c(=O)n(-c3cncc(C)c3)c(=O)n2CC#N)cc1 [Compound I-271]	< 100 nM	< 10 nM			
N#CCn1c(N2CC3(CC3)C2)c(-c2ccc(F)c(Cl)c2)c(=O)n(-c2cncc(Cl)c2)c1=O [Compound I-078]		< 10 nM		< 100 nM	
CC(C)NC(=O)c1c(-c2ccc(F)c(Cl)c2)c(=O)n(-c2cncc(Cl)c2)c(=O)n1CC#N [Compound I-406]	1000 to 5000 nM	> 100 nM			
N#CCn1c(N2CC3(C2)CC(F)(F)C3)c(-c2ccc(F)c(Cl)c2)c(=O)n(-c2cncc(OCF)c2)c1=O [Compound I-325]	< 100 nM	< 10 nM			
N#CCn1c(N2CC[C@@H](C(=O)C3CC(F)(F)C3)C2)c(-c2ccc(F)c(Cl)c2)c(=O)n(-c2cncc(Cl)c2)c1=O [Compound I-236]	< 100 nM	< 10 nM			
Cc1cncc(-n2c(=O)c(Cc3cc(F)c(F)c(F)c3)c(-c3ccc(C)c(C)c3)n(C(F)C#N)c2=O)c1 (racemic) [Compound I-048]		> 100 nM		1000 to 5000 nM	
N#CCn1c(N2CC(F)C2)c(-c2ccc(F)c(Cl)c2)c(=O)n(-c2cncc(Cl)c2)c1=O [Compound I-309]	< 100 nM	< 10 nM			
Cc1cncc(-n2c(=O)c(Cc3cc(F)c(F)c(F)c3)c(CCCO)n(CC#N)c2=O)c1 [Compound I-052]		10 to 100 nM			< 100 nM
Cc1cncc(-n2c(=O)c(-c3ccc(F)c(Cl)c3)c(-c3nc4ccccc4o3)n(CC#N)c2=O)c1 [Compound I-132]		< 10 nM		< 100 nM	
N#CCn1c(N2CC(O)(C(F)(F)F)C2)c(-c2ccc(F)c(C(F)F)c2)c(=O)n(-c2cncc(Cl)c2)c1=O [Compound I-340]	< 100 nM	< 10 nM			
Cc1cncc(-n2c(=O)c(-c3ccc(F)c(Cl)c3)c(Oc3cccc4[nH]ccc34)n(CC#N)c2=O)c1 [Compound I-028]		< 10 nM		< 100 nM	
CC1(O)CN(c2c(-c3ccc(F)c(Cl)c3)c(=O)n(-c3cncc(Cl)c3)c(=O)n2CC#N)C1 [Compound I-296]	< 100 nM	< 10 nM			
N#CCn1c(N2C[C@@H]3C[C@H]2CO3)c(-c2ccc(F)c(F)c2)c(=O)n(-c2cncc(Cl)c2)c1=O [Compound I-320]	< 100 nM	< 10 nM			
N#CCn1c(N2CC3(C2)CC(F)(F)C3)c(-c2ccc(F)c(Cl)c2)c(=O)n(-c2cnc3cc(Cl)ccn23)c1=O [Compound I-140]		< 10 nM		< 100 nM	
Cc1cncc(-n2c(=O)c(-c3ccc(F)c(Cl)c3)c(-c3ccc(C(F)(F)F)c(Cl)c3)n(CC#N)c2=O)c1 [Compound I-066]		< 10 nM		< 100 nM	
Cn1cnc(Cn2c(=O)c(Cc3cc(F)c(F)c(F)c3)c(-c3cc4ccccc4s3)n(CC#N)c2=O)n1 [Compound I-005]		> 100 nM		100 to 1000 nM	
N#CCn1c(N2CCC(C(F)(F)F)CC2)c(-c2ccc(F)c(C#N)c2)c(=O)n(-c2cncc(Cl)c2)c1=O [Compound I-402]	< 100 nM	< 10 nM			
N#CCn1c(N2CC(F)(C3CC3)C2)c(-c2ccc(F)c(Cl)c2)c(=O)n(-c2cncc(OCF)n2)c1=O [Compound I-410]	< 100 nM	< 10 nM			
Cc1cnc(F)c(-n2c(=O)c(-c3ccc(F)c(Cl)c3)c(N3CC4(C3)CC(F)(F)C4)n(CC#N)c2=O)c1 [Compound I-255]	< 100 nM	< 10 nM			
N#CCn1c(N2CCC3(CC2)CNC(=O)O3)c(-c2ccc(F)c(Cl)c2)c(=O)n(-c2cncc(Cl)c2)c1=O [Compound I-067]		< 10 nM		100 to 1000 nM	
Cc1cncc(-n2c(=O)c(-c3ccc(F)c(Cl)c3)c(N3CC4(C3)CC(F)(F)C4)n(CC#N)c2=O)c1 [Compound I-073]		< 10 nM		< 100 nM	
